According to patent US20240325493A1, “REGULATOR OF TUMOR CELL FUNCTIONS AND USES THEREOF” (Washington University, priority 2023, published 2024):

How the values were obtained:
[1] = system: Zbtb46 in bone marrow-derived dendritic cells (BMDC); assay: Zbtb46 mRNA expression in bone marrow-derived dendritic cells treated with tumor-derived factors; assay type: cell-based, mouse; settings: in vitro, 24 hours, vs PBS
Method: FIG. 13B is a graph of Zbtb46 mRNA expression in bone marrow-derived dendritic cells (BMDC) treated with PBS, prostaglandin E2 (PGE2), vascular endothelial growth factor (VEGF), or retinoic acid (RA) for 24 hours. n≥3/group. One-way ANOVA with Dunnett's test.
(§1) Quantitative real-time reverse transcription PCR (qRT-PCR) was performed. cDNA was prepared with qScript™ CDNA SuperMix (Cat: 101414-106, VWR) according to the manufacturer's protocol. Gene expression was measured by quantitative real-time RT-PCR using primers.

[2] = system: Zbtb46 in MCEC (mouse cardiac endothelial cells); assay: Zbtb46 mRNA expression in MCEC cells treated with tumor-derived factors; assay type: cell-based; settings: in vitro, 24 hours
Method: FIG. 13A is a set of graphs of Zbtb46 mRNA expression in MCEC cells, with loading control b-Actin (left) and Gapdh (right), treated with PBS or tumor-conditioned media (TCM) for 24 hours. n≥3/group. One-way ANOVA with Dunnett's test.
as §1

Compound | Zbtb46 expression in DC [1] | Zbtb46 expression in EC [2]
CCCCC[C@H](O)/C=C/[C@H]1[C@H](O)CC(=O)[C@@H]1C/C=C\CCCC(=O)O [PGE2, prostaglandin E2] | downregulated | downregulated
VEGF | downregulated | downregulated
